System: virgin, female Sprague-Dawley rats (bladder function)
Test: Cystometric testing on conscious, virgin rats
Format: in vivo, rat
[1] = 0.1 mg/kg i.v., Diff.: change relative to the initial value
[2] = 0.1 mg/kg i.v., h: after administration, at maximum action
[3] = 0.1 mg/kg i.v., v: before administration (initial value)
[4] = 0.5 mg/kg i.v., Diff.: change relative to the initial value
[5] = 0.5 mg/kg i.v., h: after administration, at maximum action
[6] = 0.5 mg/kg i.v., v: before administration (initial value)
[7] = 1.0 mg/kg i.v., Diff.: change relative to the initial value
[8] = 1.0 mg/kg i.v., h: after administration, at maximum action
[9] = 1.0 mg/kg i.v., v: before administration (initial value)
[10] = 5.0 mg/kg i.v., Diff.: change relative to the initial value
[11] = 5.0 mg/kg i.v., h: after administration, at maximum action
[12] = 5.0 mg/kg i.v., v: before administration (initial value)
[13] = 10.0 mg/kg i.v., Diff.: change relative to the initial value
[14] = 10.0 mg/kg i.v., h: after administration, at maximum action
[15] = 10.0 mg/kg i.v., v: before administration (initial value)

## CN(C)CC1CCCCC1(O)c1cccc(O)c1 (stereo not drawn) [O-demethyltramadol]
Even at low concentrations
  effect on bladder function (in words): clear effect

## (+)-O-desmethyltramadol [(+)-M1]
[1]
  Basal pressure: Diff.: +7%
  Bladder capacity: Diff.: +31%
  Inter-contraction interval: Diff.: +31%
  Micturition pressure: Diff.: −22%
  Micturition volume: Diff.: +48%
  Residual volume: Diff.: −73%
  Threshold pressure: Diff.: +32%
[2]
  Basal pressure: h: 3.87 ± 0.43 cm H2O
  Bladder capacity: h: 0.98 ± 0.06 ml
  Inter-contraction interval: 5.51 ± 0.52 min
  Micturition pressure: h: 70 ± 11 cm H2O
  Micturition volume: h: 0.95 ± 0.09 ml
  Residual volume: h: 0.03 ± 0.02 ml
  Threshold pressure: h: 8.07 ± 0.97 cm H2O
[3]
  Basal pressure: v: 3.62 ± 0.24 cm H2O
  Bladder capacity: v: 0.75 ± 0.08 ml
  Inter-contraction interval: 4.20 ± 0.55 min
  Micturition pressure: v: 90 ± 12 cm H2O
  Micturition volume: v: 0.64 ± 0.10 ml
  Residual volume: v: 0.11 ± 0.02 ml
  Threshold pressure: v: 6.12 ± 0.51 cm H2O
[4]
  Basal pressure: Diff.: +25%
  Bladder capacity: Diff.: +44%
  Inter-contraction interval: Diff.: +46%
  Micturition pressure: Diff.: −30%
  Micturition volume: Diff.: +51%
  Residual volume: Diff.: −33%
  Threshold pressure: Diff.: +106%
[5]
  Basal pressure: h: 4.90 ± 0.55 cm H2O
  Bladder capacity: h: 1.35 ± 0.11 ml
  Inter-contraction interval: 7.63 ± 0.60 min
  Micturition pressure: h: 66 ± 10 cm H2O
  Micturition volume: h: 1.28 ± 0.09 ml
  Residual volume: h: 0.06 ± 0.02 ml
  Threshold pressure: h: 15.34 ± 1.16 cm H2O
[6]
  Basal pressure: v: 3.91 ± 0.31 cm H2O
  Bladder capacity: v: 0.94 ± 0.08 ml
  Inter-contraction interval: 5.23 ± 0.45 min
  Micturition pressure: v: 94 ± 10 cm H2O
  Micturition volume: v: 0.85 ± 0.08 ml
  Residual volume: v: 0.09 ± 0.02 ml
  Threshold pressure: v: 7.44 ± 1.10 cm H2O
0.1 and 0.5 mg/kg i.v.
  bladder capacity (in words): increased
  interval between micturition (in words): extended
0.1 and, in particular, 0.5 mg/kg i.v.
  threshold pressure (in words): distinct rise

## COc1cccc([C@@]2(O)CCCC[C@@H]2CN(C)C)c1 (racemic) [Tramadol, (1RS,2RS)-2-dimethylaminomethyl-1-(3-methoxyphenyl)cyclohexanol]
[7]
  Basal pressure: Diff.: +26%
  Bladder capacity: Diff.: −2%
  Micturition pressure: Diff.: −10%
  Micturition volume: Diff.: +27%
  Residual volume: Diff.: −89%
  Threshold pressure: Diff.: +50%
[8]
  Basal pressure: h: 11.34 ± 1.54 cm H2O
  Bladder capacity: h: 0.82 ± 0.09 ml
  Micturition pressure: h: 85 ± 6 cm H2O
  Micturition volume: h: 0.95 ± 0.08 ml
  Residual volume: h: 0.01 ± 0.005 ml
  Threshold pressure: h: 21.03 ± 3.10 cm H2O
[9]
  Basal pressure: v: 9.02 ± 1.12 cm H2O
  Bladder capacity: v: 0.84 ± 0.11 ml
  Micturition pressure: v: 94 ± 7 cm H2O
  Micturition volume: v: 0.75 ± 0.09 ml
  Residual volume: v: 0.09 ± 0.02 ml
  Threshold pressure: v: 14.0 ± 2.04 cm H2O
5 mg/kg
  action on threshold pressure compared with 10 mg/kg of racemic tramadol: doubled
[10]
  Basal pressure: Diff.: +1%
  Bladder capacity: Diff.: +6%
  Inter-contraction interval: Diff.: −11%
  Micturition pressure: Diff.: −27%
  Micturition volume: Diff.: +42%
  Residual volume: Diff.: −73%
  Threshold pressure: Diff.: +37%
[11]
  Basal pressure: h: 9.30 ± 2.10 cm H2O
  Bladder capacity: h: 0.92 ± 0.08 ml
  Micturition pressure: h: 75 ± 10 cm H2O
  Micturition volume: h: 1.08 ± 0.09 ml
  Residual volume: h: 0.03 ± 0.01 ml
  Threshold pressure: h: 17.05 ± 2.33 cm H2O
[12]
  Basal pressure: v: 9.21 ± 1.35 cm H2O
  Bladder capacity: v: 0.87 ± 0.07 ml
  Micturition pressure: v: 103 ± 10 cm H2O
  Micturition volume: v: 0.76 ± 0.06 ml
  Residual volume: v: 0.11 ± 0.02 ml
  Threshold pressure: v: 12.45 ± 1.411 cm H2O
10 mg/kg i.v.
  threshold pressure (in words): distinct rise
[13]
  Basal pressure: Diff.: +40%
  Bladder capacity: Diff.: −18%
  Inter-contraction interval: Diff.: −40%
  Micturition pressure: Diff.: −11%
  Micturition volume: Diff.: +33%
  Residual volume: Diff.: −50%
  Threshold pressure: Diff.: +70%
[14]
  Basal pressure: h: 14.31 ± 1.89 cm H2O
  Bladder capacity: h: 0.78 ± 0.08 ml
  Micturition pressure: h: 66 ± 5 cm H2O
  Micturition volume: h: 1.13 ± 0.08 ml
  Residual volume: h: 0.05 ± 0.005 ml
  Threshold pressure: h: 25.50 ± 2.40 cm H2O
[15]
  Basal pressure: v: 10.21 ± 1.03 cm H2O
  Bladder capacity: v: 0.95 ± 0.06 ml
  Micturition pressure: v: 74 ± 5 cm H2O
  Micturition volume: v: 0.85 ± 0.05 ml
  Residual volume: v: 0.10 ± 0.02 ml
  Threshold pressure: v: 15.01 ± 1.32 cm H2O
Most effective dose (10 mg/kg)
  ICI (in words): distinct reduction

## COc1cccc(C2(O)CCCCC2CN(C)C)c1 (single isomer, unassigned; (-)) [(−)-Tramadol, (−)-tramadol, reference compound]
[10]
  Basal pressure: Diff.: +2%
  Bladder capacity: Diff.: −8%
  Micturition pressure: Diff.: −15%
  Micturition volume: Diff.: −6%
  Residual volume: Diff.: −17%
  Threshold pressure: Diff.: −3%
[11]
  Basal pressure: h: 4.20 ± 0.30 cm H2O
  Bladder capacity: h: 1.10 ± 0.09 ml
  Micturition pressure: h: 59 ± 3 cm H2O
  Micturition volume: h: 1.01 ± 0.09 ml
  Residual volume: h: 0.10 ± 0.02 ml
  Threshold pressure: h: 7.10 ± 0.44 cm H2O
[12]
  Basal pressure: v: 4.12 ± 0.40 cm H2O
  Bladder capacity: v: 1.19 ± 0.13 ml
  Micturition pressure: v: 69 ± 4 cm H2O
  Micturition volume: v: 1.07 ± 0.13 ml
  Residual volume: v: 0.12 ± 0.01 ml
  Threshold pressure: v: 7.32 ± 2.21 cm H2O

Reference: patent US6660774B2, “Use of (+)-tramadol, O-demethyltramadol or (+)-O-demethyl-tramadol, O-desmethyl-N-mono-desmethyl-tramadol or (+)- O-desmethyl-N-mono-desmethyltramadol” (Gruenethal GmbH, priority 1999, dated 2003)
